Assay results as given in PubChem BioAssay (NCI).
Several values for one entry are separate records, joined by “and”; a condition that tells them apart may be missing. Equal entries are not always repeated.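 Protocol summary: plate cells (96-well), add compound at 5 concentrations, incubate 48 h, interpolate endpoints linearly. The concentration for 50% growth inhibition is given as GI50. The concentration for full growth arrest is given as TGI.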

Experiments:
Assay in all cases: inhibition of tumour cell growth, NCI panel, 48 h
CCRF-CEM leukemia = system: CCRF-CEM leukemia
COLO 205 colon = system: COLO 205 colon
EKVX NSCLC = system: EKVX NSCLC
HCC-2998 colon = system: HCC-2998 colon
IGROV1 ovarian = system: IGROV1 ovarian
OVCAR-8 ovarian = system: OVCAR-8 ovarian
SK-MEL-5 melanoma = system: SK-MEL-5 melanoma
SN12C renal = system: SN12C renal
UACC-257 melanoma = system: UACC-257 melanoma
UO-31 renal = system: UO-31 renal

SMILES | GI50 (CCRF-CEM leukemia) | TGI (CCRF-CEM leukemia) | GI50 (COLO 205 colon) | TGI (COLO 205 colon) | GI50 (EKVX NSCLC) | TGI (EKVX NSCLC) | GI50 (HCC-2998 colon) | TGI (HCC-2998 colon) | GI50 (IGROV1 ovarian) | TGI (IGROV1 ovarian) | GI50 (OVCAR-8 ovarian) | GI50 (SK-MEL-5 melanoma) | TGI (SK-MEL-5 melanoma) | GI50 (SN12C renal) | TGI (SN12C renal) | GI50 (UACC-257 melanoma) | TGI (UACC-257 melanoma) | GI50 (UO-31 renal) | TGI (UO-31 renal) | TGI (OVCAR-8 ovarian)
CCN1C(=O)N(CC)C2C1NN=c1s/c(=C\c3ccc(OC)cc3)c(=O)n12 (stereo not drawn) | 0.304 µM | > 100 µM | 0.192 µM | 0.616 µM | 0.44 µM | > 100 µM | 0.357 µM | > 100 µM | 0.295 µM | > 100 µM | 0.369 µM | 0.192 µM | 1.64 µM | 0.454 µM | > 100 µM | > 100 µM | > 100 µM | 0.653 µM | > 100 µM | 
Cc1cc2c(cc1Cl)SC(C(=O)c1ccc(Cl)c(Cl)c1)NS2(=O)=O (stereo not drawn) | 27.9 µM | 61.2 µM | 21 µM | 44 µM | 37.5 µM | > 100 µM | 19.8 µM | 35.1 µM | 40.9 µM | > 100 µM | 44.5 µM | 42.3 µM | > 100 µM | 32 µM | 86.4 µM | 67.2 µM | > 100 µM | 42.2 µM | > 100 µM | > 100 µM
CCc1ccc([O-])c(C=NCCCN(C)CCCN=Cc2cc(C)ccc2[O-])c1.[Co+3].[N-]=[N+]=[N-] | > 150 µg/mL | > 150 µg/mL | 50 µg/mL and > 150 µg/mL | 50 µg/mL and > 150 µg/mL | 50 µg/mL and 103 µg/mL | 50 µg/mL and > 150 µg/mL | 50 µg/mL and 123 µg/mL | 50 µg/mL and > 150 µg/mL | 20.5 µg/mL and 24.6 µg/mL | 50 µg/mL and 55.5 µg/mL | 31.9 µg/mL and 49.1 µg/mL | 50 µg/mL and 139 µg/mL | 50 µg/mL and > 150 µg/mL | 50 µg/mL and 61.8 µg/mL | 50 µg/mL and > 150 µg/mL | 50 µg/mL and > 150 µg/mL | 50 µg/mL and > 150 µg/mL | 50 µg/mL and 84.2 µg/mL | 50 µg/mL and > 150 µg/mL | 50 µg/mL and > 150 µg/mL
COc1ccc(-c2nc3sccn3c2-c2ccnc(NCCCNS(=O)(=O)c3ccc(F)cc3)n2)cc1 | 1.52 µM | > 100 µM | 1.89 µM | 8.15 µM | 3.12 µM | > 100 µM | 5.11 µM | 57.2 µM | 3.27 µM | > 100 µM | 1.57 µM | 1.06 µM | 2.28 µM | 2.74 µM | > 100 µM | 2.85 µM | > 100 µM | 1.85 µM | 5.17 µM | > 100 µM
CS(=O)(=O)N1CCc2c(-c3cnc(N)nc3)nc(N3CCOCC3)nc21 | 0.658 µM and 1.23 µM | > 100 µM | 0.444 µM and 0.516 µM | > 10 µM and 13 µM | 0.988 µM and 0.44 µM | > 10 µM and 5.74 µM | 0.923 µM and 0.794 µM | > 73.5 µM | 0.0868 µM and 0.0664 µM | 0.443 µM and 0.485 µM | 1.65 µM and 0.984 µM | 1.78 µM and 1.36 µM | > 30.7 µM | 0.648 µM and 0.667 µM | > 100 µM | 0.809 µM and 0.446 µM | 6.85 µM and 3.8 µM | 0.18 µM and 0.136 µM | 3.14 µM and 3.03 µM | > 10 µM and 14 µM
CCCc1n(Cc2ccc3ccccc3n2)cc[n+]1Cc1ccc2ccccc2n1 | 2.72 µM | 28.3 µM | 0.633 µM | 2.21 µM | 5.67 µM | > 79.6 µM | 0.985 µM | 14.8 µM | 1.48 µM | 15.1 µM | 3.16 µM | 0.866 µM | 2.36 µM | 2.23 µM | 11.8 µM | 0.778 µM | 4.84 µM | 16.5 µM | 73.9 µM | 12.3 µM
CC[C@@]1(O)C(=O)NCc2c1cc1n(c2=O)Cc2cc3c(NC(C)=O)cccc3nc2-1 | > 100 µM | > 100 µM | > 100 µM | > 100 µM | > 100 µM | > 100 µM | > 100 µM | > 100 µM | > 100 µM | > 100 µM | > 100 µM | > 100 µM | > 100 µM | > 100 µM | > 100 µM | > 100 µM | > 100 µM | > 100 µM | > 100 µM | > 100 µM
CNc1ncc2cc(-c3cc(NC(=O)NCCC(C)(C)C)c(F)cc3C)c(C)nc2n1 | 10.1 µM and > 9.36 µM | > 100 µM | < 0.0133 µM and 0.0135 µM | 1.38 µM and > 4.3 µM | 2.54 µM and 1.38 µM | 99.6 µM and > 10 µM | 0.283 µM and 0.207 µM | > 77.2 µM | 0.179 µM and 0.151 µM |  | 0.512 µM and 0.515 µM | 0.458 µM and 0.309 µM | 16.3 µM and > 10 µM | 0.485 µM and 0.411 µM | > 100 µM | 0.0139 µM | 0.0555 µM | 0.143 µM and 0.117 µM | > 67.7 µM | > 100 µM
COc1cc(NC(C)CCCN2C(=O)c3ccccc3C2=O)c2ncccc2c1OC (stereo not drawn) | 49.2 µM | > 100 µM | 31.9 µM | > 100 µM | 29.7 µM | > 100 µM | 33.1 µM | > 100 µM | 18.6 µM | > 100 µM | 34.9 µM | 16.5 µM | 30.1 µM | 66.9 µM | > 100 µM | 40.6 µM | > 100 µM | 36.7 µM | > 100 µM | > 100 µM
c1ccc2c(c1)N=C(c1ccc3ccccc3c1)CC(c1cccc3ccccc13)S2 (stereo not drawn) |  | 33.5 µM |  | > 100 µM |  | > 100 µM |  | 40.3 µM |  | > 100 µM |  |  | > 100 µM |  | > 100 µM |  | > 100 µM |  | > 100 µM | > 100 µM
COc1cc(-c2nn(-c3cccc(NC(=O)CCN4CCN(C)CC4)c3)cc2-c2ccncc2)ccc1Cl | 1.98 µM | 6.85 µM | 1.09 µM | 2.47 µM | 2.13 µM | 12.6 µM | 1.86 µM | 3.79 µM | 2.37 µM | 15.6 µM | 2.77 µM | 0.529 µM | 1.86 µM | 2.05 µM | 8.45 µM | 1.44 µM | 3.07 µM | 1.38 µM | 3.91 µM | 12 µM
CC(C)[C@H](C(=O)O[C@@H]1/C=C/C(=O)O[C@@H](C)CCC/C=C/[C@@H]2C[C@H](O)C[C@H]21)N(C)C | 6.05 µM | 75 µM | 3.49 µM | 9.67 µM | 8.45 µM | > 65.3 µM | 12.9 µM | 62.2 µM | 22.8 µM | > 71.3 µM | 13.2 µM | 1.75 µM | 3.44 µM | 26.7 µM | > 68.7 µM | 15.2 µM | 71.1 µM | 15 µM | > 83.7 µM | > 68.9 µM
